# Assay results as given in patent US20020169111A1, “Reversal of multidrug resistance in human colon carcinoma cells” (American Cyanamid Comany, priority 1998, published 2002).
# Tested on: S1-M1-3.2 cells
# Conditions: for Toxicity (>20%): compound alone, concentration that causes greater than 20% cell death of S1-M1-3.2 cells; for IC50: read-out: IC50 (μM), resensitizing S1-M1-3.2 cells to mitoxantrone, with 3.2 μM mitoxantrone, 50% cancer cell death
# Method: One of the first reported molecules with reversing activity was verapamil, a calcium channel blocker. […] Cells were plated into 96-well dishes (100 μl/well) in growth medium supplemented with 5% FBS. […] Reversal agents were tested from 0.1-80 μM (triplicate points per dose). In parallel wells, cells were grown in the presence of the reversal agent alone.
# The Difference Score is the difference in the percentage of cells surviving when the drug was given alone minus the percentage of cells surviving when the drug was given along with the antitumor agent.
# Cell survival was estimated using the Sulforhodamine (SRB) assay.
Compound,Toxicity (>20%) [µM],IC50 [µM]
"NCCC[C@@H]1c2[nH]c3ccccc3c2C[C@H]2C(=O)N3CCC[C@H]3C(=O)N12 [Example 29a, (5aS,12R,14aS)-12-(3-aminopropyl)-1,2,3,5a,6,11,12,14a-octahydro-5H,14H-pyrrolo[1″,2″:4′,5′]pyrazino[2′,1′:6,1]pyrido[3,4-b]indole-5,14-dione]",>80,20
"NCCC[C@H]1c2[nH]c3ccccc3c2C[C@H]2C(=O)N3CCC[C@H]3C(=O)N21 [Example 29b, (5aS,12S,14aS)-12-(3-aminopropyl)-1,2,3,5a,6,11,12,14a-octahydro-5H,14H-pyrrolo[1″,2″:4′,5′]pyrazino[2′,1′:6,1]pyrido[3,4-b]indole-5,14-dione]",>80,> 80
"CC(=O)NCCC[C@H]1c2[nH]c3ccccc3c2C[C@H]2C(=O)N3CCC[C@H]3C(=O)N21 [Example 30, N-{3-[(5aS,12S,14aS)-5,14-dioxo-2,3,5a,6,11,12,14,14a-octahydro-1H,5H-pyrrolo[1″,2″:4′,5′]pyrazino[2′,1′:6,1]pyrido[3,4-b]indol-12-yl]propyl}Acetamide]",>80,> 80
"CCCC(=O)NCCC[C@H]1c2[nH]c3ccccc3c2C[C@H]2C(=O)N3CCC[C@H]3C(=O)N21 [Example 31, N-{3-[(5aS,12S,14aS)-5,14-dioxo-2,3,5a,6,11,12,14,14a-octahydro-1H,5H-pyrrolo[1″,2″:4′,5′]pyrazino[2′,1′:6,1]pyrido[3,4-b]indol-12-yl]propyl}Butanamide]",>80,65
"O=C(O)CCC(=O)NCCC[C@H]1c2[nH]c3ccccc3c2C[C@H]2C(=O)N3CCC[C@H]3C(=O)N21 [Example 32, 4-({3-[(5aS,12S,14aS)-5,14-dioxo-2,3,5a,6,11,12,14,14a-octahydro-1H,5H-pyrrolo[1″,2″:4′,5′]pyrazino[2′,1′:6,1]pyrido[3,4-b]indol-12-yl]propyl}amino)-4-oxobutanoic acid]",>80,> 80
"O=C(NCCC[C@H]1c2[nH]c3ccccc3c2C[C@H]2C(=O)N3CCC[C@H]3C(=O)N21)[C@@H]1CCCN1 [Example 33, (2S)-N-{3-[(5aS,12S,14aS)-5,14-dioxo-2,3,5a,6,11,12,14,14a-octahydro-1H,5H-pyrrolo[1″,2″:4′,5′]pyrazino[2′,1′:6,1]pyrido[3,4-b]indol-12-yl]propyl}pyrrolidine-2-carboxamide]",>80,> 80
COc1ccc2c3c(n(CC=C(C)C)c2c1)[C@H](C=C(C)C)N1C(=O)[C@@H]2CCCN2C(=O)[C@@H]1C3 [Example 34],2.0,1
